Toxic doses and inconclusive results are not listed. Cut-off read from the data, not from the text of the source: active = T/C of 150% or more; inactive = T/C below 125%.
Test system: L1210 leukemia ip in BDF1 mice, survival T/C
Assay: NCI In Vivo Anticancer Drug Screen. Data for tumor model L1210 Leukemia (intraperitoneal) in B6D2F1 (BDF1) mice
Conditions: higher = longer survival
Summary of the method: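 Mice bearing the transplanted tumor received compound or vehicle. Survival of the treated group was divided by that of the vehicle-treated control group to give the ratio.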

Measured: T/C

O=C1CN=C(c2ccc[nH]2)c2cc(Cl)ccc2N1
inactive: endpoint: mean survival time, dose: 100.0 mg/kg/injection, schedule: Q03HX008 (oral), vehicle: saline with Tween-80 123 % of control | endpoint: mean survival time, dose: 100.0 mg/kg/injection, schedule: Q03HX024 (oral), vehicle: saline with Tween-80 121 % of control | endpoint: mean survival time, dose: 100.0 mg/kg/injection, schedule: Q04DX003 (ip), vehicle: other 105 % of control | endpoint: mean survival time, dose: 100.0 mg/kg/injection, schedule: Q04DX003 (oral), vehicle: saline with Tween-80 109 % of control | endpoint: mean survival time, dose: 100.0 mg/kg/injection, schedule: Q08DX002 (ip), vehicle: other 115 % of control | endpoint: mean survival time, dose: 100.0 mg/kg/injection, schedule: Q08DX002 (oral), vehicle: saline with Tween-80 103 % of control | endpoint: mean survival time, dose: 102.0 mg/kg/injection, schedule: Q01DX007 (oral), vehicle: other 108 % of control | endpoint: mean survival time, dose: 120.0 mg/kg/injection, schedule: Q01DX009 (ip), vehicle: other 116 % of control | endpoint: mean survival time, dose: 156.0 mg/kg/injection, schedule: Q01DX007 (oral), vehicle: other 112 % of control | endpoint: mean survival time, dose: 200.0 mg/kg/injection, schedule: Q01DX001 (ip), vehicle: other 106 % of control | endpoint: mean survival time, dose: 200.0 mg/kg/injection, schedule: Q01DX001 (iv), vehicle: other 108 % of control | endpoint: mean survival time, dose: 200.0 mg/kg/injection, schedule: Q01DX001 (oral), vehicle: saline with Tween-80 116 % of control | endpoint: mean survival time, dose: 200.0 mg/kg/injection, schedule: Q01DX009 (oral), vehicle: saline with Tween-80 109 % of control | endpoint: mean survival time, dose: 200.0 mg/kg/injection, schedule: Q04DX003 (ip), vehicle: other 114 % of control | endpoint: mean survival time, dose: 200.0 mg/kg/injection, schedule: Q04DX003 (oral), vehicle: saline with Tween-80 115 % of control | endpoint: mean survival time, dose: 200.0 mg/kg/injection, schedule: Q08DX002 (ip), vehicle: other 118 % of control | endpoint: mean survival time, dose: 200.0 mg/kg/injection, schedule: Q08DX002 (oral), vehicle: saline with Tween-80 105 % of control | endpoint: mean survival time, dose: 225.0 mg/kg/injection, schedule: Q01DX Z (ip), vehicle: carboxymethylcellulose (CMC) 86 % of control | endpoint: mean survival time, dose: 240.0 mg/kg/injection, schedule: Q01DX007 (oral), vehicle: other 119 % of control | endpoint: mean survival time, dose: 400.0 mg/kg/injection, schedule: Q01DX001 (ip), vehicle: other 112 % of control | endpoint: mean survival time, dose: 400.0 mg/kg/injection, schedule: Q01DX001 (iv), vehicle: other 109 % of control | endpoint: mean survival time, dose: 400.0 mg/kg/injection, schedule: Q01DX001 (oral), vehicle: saline with Tween-80 108 % of control | endpoint: mean survival time, dose: 400.0 mg/kg/injection, schedule: Q01DX009 (ip), vehicle: Klucel (hydroxypropylcellulose) (HPC) 109 % of control | endpoint: mean survival time, dose: 400.0 mg/kg/injection, schedule: Q01DX009 (ip), vehicle: water 108 % of control | endpoint: mean survival time, dose: 400.0 mg/kg/injection, schedule: Q01DX009 (oral), vehicle: saline with Tween-80 105 % of control | endpoint: mean survival time, dose: 400.0 mg/kg/injection, schedule: Q04DX003 (ip), vehicle: other 114 % of control | endpoint: mean survival time, dose: 400.0 mg/kg/injection, schedule: Q08DX002 (ip), vehicle: other 109 % of control | endpoint: mean survival time, dose: 400.0 mg/kg/injection, schedule: Q08DX002 (oral), vehicle: saline with Tween-80 109 % of control | endpoint: mean survival time, dose: 540.0 mg/kg/injection, schedule: Q01DX001 (oral), vehicle: other 110 % of control | endpoint: mean survival time, dose: 720.0 mg/kg/injection, schedule: Q01DX001 (oral), vehicle: other 110 % of control | endpoint: mean survival time, dose: 800.0 mg/kg/injection, schedule: Q08DX002 (oral), vehicle: saline with Tween-80 121 % of control | endpoint: median survival time, dose: 2.0 mg/kg/injection, schedule: Q03HX008 (ip), vehicle: clinical formulation 95 % of control | endpoint: median survival time, dose: 32.0 mg/kg/injection, schedule: Q04DX003 (ip), vehicle: clinical formulation 90 % of control | endpoint: median survival time, dose: 50.0 mg/kg/injection, schedule: Q01DX009 (ip), vehicle: steriod suspending solution 100 % of control | endpoint: median survival time, dose: 50.0 mg/kg/injection, schedule: Q01DX009 (sc), vehicle: steriod suspending solution 100 % of control | endpoint: median survival time, dose: 64.0 mg/kg/injection, schedule: Q01DX001 (ip), vehicle: clinical formulation 95 % of control | endpoint: median survival time, dose: 64.0 mg/kg/injection, schedule: Q04DX003 (ip), vehicle: clinical formulation 100 % of control | endpoint: median survival time, dose: 100.0 mg/kg/injection, schedule: Q01DX001 (ip), vehicle: acid diluted with saline 100 % of control | endpoint: median survival time, dose: 100.0 mg/kg/injection, schedule: Q01DX009 (ip), vehicle: steriod suspending solution 100 % of control | endpoint: median survival time, dose: 100.0 mg/kg/injection, schedule: Q01DX009 (sc), vehicle: steriod suspending solution 100 % of control | endpoint: median survival time, dose: 200.0 mg/kg/injection, schedule: Q01DX001 (ip), vehicle: acid diluted with saline 95 % of control | endpoint: median survival time, dose: 200.0 mg/kg/injection, schedule: Q01DX009 (ip), vehicle: steriod suspending solution 122 % of control | endpoint: median survival time, dose: 200.0 mg/kg/injection, schedule: Q01DX009 (sc), vehicle: steriod suspending solution 100 % of control | endpoint: median survival time, dose: 400.0 mg/kg/injection, schedule: Q01DX009 (sc), vehicle: steriod suspending solution 122 % of control | endpoint: median survival time, dose: 800.0 mg/kg/injection, schedule: Q01DX009 (ip), vehicle: steriod suspending solution 88 % of control
active: endpoint: mean survival time, dose: 112.0 mg/kg/injection, schedule: Q01DX015 (ip), vehicle: other 158 % of control | endpoint: mean survival time, dose: 112.5 mg/kg/injection, schedule: Q01DX Z (ip), vehicle: carboxymethylcellulose (CMC) 170 % of control | endpoint: mean survival time, dose: 180.0 mg/kg/injection, schedule: Q01DX009 (ip), vehicle: other 155 % of control | endpoint: median survival time, dose: 400.0 mg/kg/injection, schedule: Q01DX009 (ip), vehicle: steriod suspending solution 150 % of control
